Reference: patent US20170007595A1, “NSD3 INHIBITORS FOR TREATMENT OF CANCERS” (THE BRIGHAM AND WOMEN'S HOSPITAL, INC., priority 2014, published 2017)

Legend:
macrophages = settings: cited from earlier work
[1] = test system: 1221 cells (NSD3-NUT-positive NMC); assay: high throughput 384-well immunofluorescence analysis (keratin, Ki-67, cell number) of 1221 NMC cells; assay type: cell-based, human; settings: 72 h, dose-dependent
Method: For TC-797, Per403, and 8645 cells, 7×10^6 cells were transfected with 50 nM siRNA using Nucleofector II (Lonza, Basel, Switzerland) and Amaxa solution R and plated in 100 mm cell culture dish. 1221 cells were transfected using RNAi-MAX (Invitrogen) using the manufacturer's protocol. Briefly, reverse transfection procedure was used to deliver 50 nM siRNA to 33×10^4 cells in a 6 well plate. Cells were analyzed for mRNA levels 24 h after transfection. Sequences of siRNA used were: siControl, ON-TARGET plus siRNA #1 (Dharmacon, Cat # D-001810-01-20), siNUT-1 (targeting coding sequence) […] (SEQ ID NO: 57), siNUT-2 (targeting the 3′ UTR) […] (SEQ ID NO: 58), siBRD4 5′ siGENOME Human BRD4 (Dharmacon Cat # D-004937-02), siBRD4 3′ […] (SEQ ID NO: 59), siNSD3-6 ON-TARGETplus Human WHSC1L1 (54904) (Dharmacon Cat # J-012875-06), siNSD3-7, ON-TARGETplus Human WHSC1L1 (54904) siRNA (Dharmacon Cat # J-012875-07), siNSD3 3′-1 […] (SEQ ID NO: 15), si NSD3 3′-2 […] […]
Cells were transfected in 384 well format using 50 nM control siRNA (above), NSD3 siRNA (above), BRD4 siRNA, and NUT siRNA (above), as described (6), or a dose range of JQ1 treatment. […] Each condition was performed in triplicate in 384-well plate format in three separate experiments, where wells were analyzed using MetaXpress with Multi Wavelength Cell Scoring for cell number, average keratin fluorescence pixel intensity, and % Ki-67 per well. […]

BET Bromodomains = settings: cited from earlier work
[2] = molecular target: T1, NSD3 (endogenous, wild type) (human, UniProt Q9BZ95 1-1437, limits assumed); assay: anti-HA co-immunoprecipitation from C33A-6TR lysates, Western blot with anti-NSD3
T1 construct: Endogenous protein of cell lysates detected with an anti-NSD3 antibody; also called wild type NSD3; WHSC1L1
T1 sequence: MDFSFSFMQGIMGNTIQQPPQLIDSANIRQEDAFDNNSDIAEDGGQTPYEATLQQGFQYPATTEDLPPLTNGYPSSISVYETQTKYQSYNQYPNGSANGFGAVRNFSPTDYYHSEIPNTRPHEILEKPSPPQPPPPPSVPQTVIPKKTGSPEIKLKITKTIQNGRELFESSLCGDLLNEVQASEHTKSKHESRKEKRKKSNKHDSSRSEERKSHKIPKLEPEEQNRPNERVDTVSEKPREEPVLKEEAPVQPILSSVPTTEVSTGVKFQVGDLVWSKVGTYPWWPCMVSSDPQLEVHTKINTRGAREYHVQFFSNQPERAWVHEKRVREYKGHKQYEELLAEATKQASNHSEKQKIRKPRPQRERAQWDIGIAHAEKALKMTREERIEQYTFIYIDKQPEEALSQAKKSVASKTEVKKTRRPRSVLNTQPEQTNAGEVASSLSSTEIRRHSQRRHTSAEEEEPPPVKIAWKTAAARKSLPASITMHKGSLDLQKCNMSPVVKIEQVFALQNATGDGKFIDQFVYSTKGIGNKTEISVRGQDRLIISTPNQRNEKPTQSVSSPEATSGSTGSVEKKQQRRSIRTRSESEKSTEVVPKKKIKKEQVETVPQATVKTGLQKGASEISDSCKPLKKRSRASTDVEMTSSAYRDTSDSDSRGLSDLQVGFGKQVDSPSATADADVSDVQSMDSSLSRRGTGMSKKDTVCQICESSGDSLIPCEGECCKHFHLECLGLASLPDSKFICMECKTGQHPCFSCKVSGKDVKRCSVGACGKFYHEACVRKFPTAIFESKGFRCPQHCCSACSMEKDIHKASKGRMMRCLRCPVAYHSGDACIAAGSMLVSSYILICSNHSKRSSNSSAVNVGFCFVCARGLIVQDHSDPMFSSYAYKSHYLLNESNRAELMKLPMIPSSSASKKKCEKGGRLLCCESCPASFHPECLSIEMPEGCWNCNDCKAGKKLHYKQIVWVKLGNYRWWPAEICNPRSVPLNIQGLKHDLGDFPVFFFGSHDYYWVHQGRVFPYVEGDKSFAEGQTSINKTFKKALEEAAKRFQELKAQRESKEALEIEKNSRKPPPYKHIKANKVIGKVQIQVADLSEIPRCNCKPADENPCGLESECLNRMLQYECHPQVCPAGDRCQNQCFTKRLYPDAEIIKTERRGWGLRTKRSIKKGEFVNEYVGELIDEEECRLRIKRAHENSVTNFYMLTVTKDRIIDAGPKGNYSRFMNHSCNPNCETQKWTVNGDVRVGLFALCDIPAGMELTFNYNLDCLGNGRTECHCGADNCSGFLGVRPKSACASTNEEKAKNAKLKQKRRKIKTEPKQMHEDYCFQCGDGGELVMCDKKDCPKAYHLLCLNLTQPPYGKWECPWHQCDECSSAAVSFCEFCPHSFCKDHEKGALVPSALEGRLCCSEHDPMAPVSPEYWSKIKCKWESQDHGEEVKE
Method: For co-immunoprecipitation experiments of HA-tagged proteins, C33A-6TR cells stably expressing HA-tagged constructs under a Tet-inducible promoter were used. Protein extracts were prepared 24 h after transfection or induction with Doxycycline (1 μg/ml). Cells were lysed in lysis buffer (50 mM Tris-HCl [pH 7.5], 150 mM NaCl, 0.5% Nonidet P-40) with freshly added protease inhibitors (Roche Complete, EDTA free protease inhibitor cocktail, Roche, Indianapolis, Ind.). Extracts were adjusted for protein concentration and 10% of extracts were used as Input Immunoprecipitations were performed using 15 μl of HA-resin (Sigma A2095). Extracts were incubated overnight at 4° C., and precipitated proteins were detected by Western blot analysis.

## CCNC(=O)C[C@@H]1N=C(c2ccc(Cl)cc2)c2cc(OC)ccc2-n2c(C)nnc21 [I-BET-762]
macrophages
  production of proinflammatory proteins by macrophages: suppresses the production of proinflammatory proteins

## Cc1sc2c(c1C)C(c1ccc(Cl)cc1)=N[C@@H](CC(=O)OC(C)(C)C)c1nnc(C)n1-2 [JQ1, (S)-tert-butyl 2-(4-(4-chlorophenyl)-2,3,9-trimethyl-6H-thieno[3,2-f][1,2,4]triazolo[4,3-a][1,4]diazepin-6-yl)acetate]
[1]; dose range of JQ1 vs DMSO
  differentiation (keratin intensity): results in differentiation
[1]; increasing concentrations of JQ1 vs DMSO
  proliferation (cell number): arrested proliferation

## O=c1cc(N2CCOCC2)oc2c(-c3ccccc3)cccc12 [LY294002]
BET Bromodomains
  BET inhibition: reported to be a BET inhibitor

B1: HA-tagged NUT (full length) (other)
chain: MASDGASALPGPDMSMKPSAALSPSPALPFLPPTSDPPDHPPREPPPQPIMPSVFSPDNPLMLSAFPSSLLVTGDGGPCLSGAGAGKVIVRVKTEGGSAEPSQTQNFILTQTALNSTAPGTPCGGLEGPAPPFVTASNVKTILPSKAVGVSQEGPPGLPPQPPPPVAQLVPIVPLEKAWPGPHGTTGEGGPVATLSKPSLGDRSKISKDVYENFRQWQRYKALARRHLSQSPDTEALSCFLIPVLRSLARLKPTMTLEEGLPLAVQEWEHTSNFDRMIFYEMAERFMEFEAEEMQIQNTQLMNGSQGLSPATPLKLDPLGPLASEVCQQPVYIPKKAASKTRAPRRRQRKAQRPPAPEAPKEIPPEAVKEYVDIMEWLVGTHLATGESDGKQEEEGQQQEEEGMYPDPGLLSYINELCSQKVFVSKVEAVIHPQFLADLLSPEKQRDPLALIEELEQEEGLTLAQLVQKRLMALEEEEDAEAPPSFSGAQLDSSPSGSVEDEDGDGRLRPSPGLQGAGGAACLGKVSSSGKRAREVHGGQEQALDSPRGMHRDGNTLPSPSSWDLQPELAAPQGTPGPLGVERRGSGKVINQVSLHQDGHLGGAGPPGHCLVADRTSEALPLCWQGGFQPESTPSLDAGLAELAPLQGQGLEKQVLGLQKGQQTGGRGVLPQGKEPLAVPWEGSSGAMWGDDRGTPMAQSYDQNPSPRAAGERDDVCLSPGVWLSSEMDAVGLELPVQIEEVIESFQVEKCVTEYQEGCQGLGSRGMISLGPGETLVPGDTESSVIPCGGTVAAAALEKRNYCSLPGPLRANSPPLRSKENQEQSCETVGHPSDLWAEGCFPLLESGDSTLGSSKETLPPTCQGNLLIMGTEDASSLPEASQEAGSRGSFSPLLETIEPVNILDVKDDCGLQLRVSEDTCPLNVHSYDPQGEGRVDPDLSKPKNLAPLQESQESYTTGTPKATSSHQGLGSTLPRRGTRNAIVPRETSVSKTHRSADRAKGKEKKKKEAEEEDEELSNFAYLLASKLSLSPREHPLSPHHASGGQGSQRASHLLPAGAKGPSKLPYPVAKSGKRALAGGPAPTEKTPHSGAQLGVPREKPLALGVVRPSQPRKRRCDSFVTGRRKKRRRSQ
notes: also called HA-NUT; not shown: N-terminal HA tag
[2]
  binding result: no binding
